The subject of one test is Fusarium oxysporum. Format: cell-based.

Where two headings read alike, the source gives them in different places. Residues, ends and D or L forms follow the SMILES beside them.

The IC50 is the point on the concentration scale where inhibition reaches its midpoint.

Regarding “TKPCQSDKDCKKFACRKPKVPKCINGFCKCVR (listed as Cicer arietinum) [NCR13-P]”, the “Fusarium oxysporum MIC” value in the test on Fusarium oxysporum was 2 to 3 µM. For the same molecule, the IC50 in the test with Fusarium oxysporum is 1000 nM; in the test with Botrytis cinerea (read-out: Botrytis cinerea IC50), 1000 nM; in the test with Fusarium graminearum (read-out: Fusarium graminearum IC50), 2000 nM; with Phytophthora capsici (read-out: Phytophthora capsici IC50), greater than 6000 nM; in the test with Alternaria brassicicola (read-out: Alternaria brassicicola IC50), 2000 nM. The “Botrytis cinerea MIC” value in the test on Botrytis cinerea was 3 µM. Besides, in the test on Fusarium graminearum, the “Fusarium graminearum MIC” value was 3 µM. In addition, the “Phytophthora capsici MIC” value in the test on Phytophthora capsici is greater than 6 µM. The “growth inhibition of P. capsici (in words)” value in the test on Phytophthora capsici was “inactive”. The “Alternaria brassicicola MIC” value with Alternaria brassicicola was 4 µM.
Turning to `CSCC[C@H](NC(=O)[C@H](CCCCN)NC(=O)[C@@H](N)CCCCN)C(=O)N1CCC[C@H]1C(=O)N[C@@H](CS)C(=O)N[C@@H](CCCCN)C(=O)N[C@@H](CCCNC(=N)N)C(=O)N[C@@H](CCCNC(=N)N)C(=O)N[C@@H](CCCNC(=N)N)C(=O)N[C@@H](CC(=O)O)C(=O)N[C@@H](CS)C(=O)N[C@@H](CCCCN)C(=O)N[C@H](C(=O)N[C@@H](Cc1ccc(O)cc1)C(=O)N1CCC[C@H]1C(=O)N[C@@H](CS)C(=O)N1CCC[C@H]1C(=O)N[C@@H](Cc1c[nH]cn1)C(=O)N1CCC[C@H]1C(=O)N[C@@H](CCCCN)C(=O)N[C@H](C(=O)N[C@@H](CCCNC(=N)N)C(=O)N[C@@H](CC(=O)O)C(=O)N[C@@H](CS)C(=O)N[C@H](C(=O)N[C@@H](CCCCN)C(=O)NCC(=O)N[C@@H](Cc1ccc(O)cc1)C(=O)N[C@@H](CS)C(=O)N[C@@H](CCCCN)C(=O)N[C@@H](CS)C(=O)N[C@H](C(=O)N[C@H](C(=O)N[C@@H](CCCNC(=N)N)C(=O)O)C(C)C)C(C)C)C(C)C)C(C)C)[C@@H](C)O` [NCR7-S] (H-KKMPCKRRRDCKTYPCPHPKVRDCVKGYCKCVVR-OH; N-terminus and C-terminus assumed), in the test with Botrytis cinerea, the “Botrytis cinerea MIC” value was 6 µM and half-maximal inhibition (IC50) required 3000 nM. For the same molecule, in the test on Fusarium graminearum, the “Fusarium graminearum MIC” value was found to be 6 µM and the concentration for half-maximal inhibition (IC50) turned out to be 4000 nM. In the test on Phytophthora capsici, the IC50 is greater than 6000 nM and the “Phytophthora capsici MIC” value was greater than 6 µM. Also, in the test on Alternaria brassicicola, the “Alternaria brassicicola MIC” value was 6 µM and the IC50 is 4000 nM.
Take `CC[C@H](C)[C@H](NC(=O)[C@H](CS)NC(=O)[C@H](CCCCN)NC(=O)[C@@H]1CCCN1C(=O)[C@@H](NC(=O)[C@H](CCCCN)NC(=O)[C@@H]1CCCN1C(=O)[C@H](CCCCN)NC(=O)[C@H](CCCNC(=N)N)NC(=O)[C@H](CS)NC(=O)[C@H](C)NC(=O)[C@H](Cc1ccccc1)NC(=O)[C@H](CCCCN)NC(=O)[C@H](CCCCN)NC(=O)[C@H](CS)NC(=O)[C@H](CC(=O)O)NC(=O)[C@H](CCCCN)NC(=O)[C@H](CC(=O)O)NC(=O)[C@H](CO)NC(=O)[C@H](CCC(N)=O)NC(=O)[C@H](CS)NC(=O)[C@@H]1CCCN1C(=O)[C@H](CCCCN)NC(=O)[C@@H](N)[C@@H](C)O)C(C)C)C(=O)N[C@@H](CC(N)=O)C(=O)NCC(=O)N[C@@H](Cc1ccccc1)C(=O)N[C@@H](CS)C(=O)N[C@@H](CCCCN)C(=O)N[C@@H](CS)C(=O)N[C@H](C(=O)N[C@@H](CCCNC(=N)N)C(=O)O)C(C)C` [NCR13-S] (H-TKPCQSDKDCKKFACRKPKVPKCINGFCKCVR-OH): in the test with Botrytis cinerea, the “Botrytis cinerea MIC” value came to 3 µM and the IC50 was 1500 nM. In addition, in the test on Fusarium graminearum, the “Fusarium graminearum MIC” value was 6 µM and the IC50 worked out at 4000 nM. For the same molecule, in the test on Phytophthora capsici, the IC50 is greater than 6000 nM and the “Phytophthora capsici MIC” value was greater than 6 µM. In the test on Alternaria brassicicola, the “Alternaria brassicicola MIC” value amounted to 6 µM and half-maximal inhibition (IC50) required 4000 nM.
Turning to `CC(C)[C@H](NC(=O)[C@H](CS)NC(=O)[C@H](CCCCN)NC(=O)[C@H](CS)NC(=O)[C@H](Cc1ccccc1)NC(=O)CNC(=O)[C@H](CC(N)=O)NC(=O)[C@@H](NC(=O)[C@H](CS)NC(=O)[C@H](CC(N)=O)NC(=O)[C@@H]1CCCN1C(=O)[C@@H](NC(=O)[C@H](CCCCN)NC(=O)[C@@H]1CCCN1C(=O)[C@@H](NC(=O)[C@@H]1CCCN1C(=O)[C@H](CS)NC(=O)[C@H](CCCNC(=N)N)NC(=O)[C@H](Cc1ccc(O)cc1)NC(=O)[C@@H](NC(=O)[C@H](CCCCN)NC(=O)[C@H](CS)NC(=O)[C@H](Cc1c[nH]cn1)NC(=O)[C@H](CCCCN)NC(=O)[C@H](CCCNC(=N)N)NC(=O)[C@H](CO)NC(=O)[C@H](CCCCN)NC(=O)[C@H](CS)NC(=O)[C@@H]1CCCN1C(=O)[C@H](CCC(N)=O)NC(=O)[C@H](CCCCN)NC(=O)[C@@H](N)[C@@H](C)O)[C@@H](C)O)[C@@H](C)O)C(C)C)C(C)C)C(=O)N[C@@H](CCCNC(=N)N)C(=O)O` [NCR15-S] (H-TKQPCKSRKHCKTYRCPTPKVPNCVNGFCKCVR-OH; N-terminus and C-terminus assumed), in the test on Botrytis cinerea, the “Botrytis cinerea MIC” value came out at 6 µM and the IC50 is 3000 nM. Moreover, in the test with Fusarium graminearum, the “Fusarium graminearum MIC” value was found to be 6 µM and the midpoint of inhibition, the IC50, lay at 4000 nM. Moreover, in the test with Phytophthora capsici, the IC50 is greater than 6000 nM and the “Phytophthora capsici MIC” value was greater than 6 µM. In addition, in the test with Alternaria brassicicola, the “Alternaria brassicicola MIC” value is 6 µM and the IC50 stood at 3000 nM.

B1: TKPCQSDKDCKKFACRKPKVPKCINGFCKCVRAPKKVEPTKPCQSDKDCKKFACRKPKVPKCINGFCKCVR (protein)
chain: TKPCQSDKDCKKFACRKPKVPKCINGFCKCVRAPKKVEPTKPCQSDKDCKKFACRKPKVPKCINGFCKCVR
notes: two NCR13 monomers linked in tandem by the APKKVEP spacer peptide from MtDef5 defensin, 71 amino acids
As to B1, in the test on Fusarium oxysporum, the “Fusarium oxysporum MIC” value came out at 0.3 µM, the half-maximal inhibitory concentration (IC50) worked out at 100 nM and the “antifungal activity against F. oxysporum (in words)” value is listed as “significantly more active”. Also, the “antifungal activity against B. cinerea (in words)” value in the test on Botrytis cinerea is “significantly more active”. Further, the “Botrytis cinerea MIC” value in the test on Botrytis cinerea (in vitro growth inhibition) is 1.5 µM. Moreover, in the test with Botrytis cinerea (read-out: Botrytis cinerea IC50, in vitro growth inhibition), the IC50 is 750 nM. Besides, the “Fusarium graminearum MIC” value in the test with Fusarium graminearum (in vitro growth inhibition) worked out at 1.5 µM. Besides, the IC50 with Fusarium graminearum (read-out: Fusarium graminearum IC50, in vitro growth inhibition) was found to be 1000 nM.

(Values after US12604903B2 (priority 2019, dated 2026).)
